According to the NIST ThermoML archive (doi:10.1016/j.fluid.2010.07.011):
Numbers after ± are expanded uncertainties.

Test: xn = mol fraction of the nth substance listed
Conditions: 101.33 kPa, Liquid, Vibrating tube method

CCCCCCN [1-hexanamine] + CCCCCCC
mass density [kg/m3]
Conditions | 288.15 K | 293.15 K | 298.15 K | 303.15 K | 308.15 K | 313.15 K | 318.15 K | 323.15 K
x1 = 0.0497 | 691.084 ± 0.18 | 686.872 ± 0.18 | 682.638 ± 0.19 | 678.375 ± 0.19 | 674.087 ± 0.19 | 669.766 ± 0.19 | 665.416 ± 0.19 | 661.034 ± 0.19
x1 = 0.0712 | 692.472 ± 0.19 | 688.259 ± 0.19 | 684.023 ± 0.19 | 679.762 ± 0.19 | 675.473 ± 0.19 | 671.155 ± 0.19 | 666.804 ± 0.2 | 662.428 ± 0.2
x1 = 0.1 | 694.376 ± 0.19 | 690.164 ± 0.19 | 685.929 ± 0.19 | 681.666 ± 0.2 | 677.379 ± 0.2 | 673.063 ± 0.2 | 668.716 ± 0.2 | 664.339 ± 0.2
x1 = 0.1394 | 697.059 ± 0.2 | 692.841 ± 0.2 | 688.603 ± 0.2 | 684.341 ± 0.2 | 680.052 ± 0.2 | 675.736 ± 0.2 | 671.39 ± 0.2 | 667.016 ± 0.21
x1 = 0.2017 | 701.458 ± 0.21 | 697.235 ± 0.21 | 692.989 ± 0.21 | 688.722 ± 0.21 | 684.431 ± 0.21 | 680.114 ± 0.22 | 675.766 ± 0.22 | 671.395 ± 0.22
x1 = 0.3011 | 708.825 ± 0.24 | 704.586 ± 0.24 | 700.331 ± 0.24 | 696.055 ± 0.24 | 691.758 ± 0.24 | 687.436 ± 0.24 | 683.088 ± 0.24 | 678.716 ± 0.24
x1 = 0.4001 | 716.491 ± 0.27 | 712.241 ± 0.27 | 707.974 ± 0.27 | 703.691 ± 0.27 | 699.388 ± 0.27 | 695.063 ± 0.27 | 690.714 ± 0.27 | 686.344 ± 0.27
x1 = 0.5105 | 725.411 ± 0.31 | 721.153 ± 0.31 | 716.879 ± 0.31 | 712.593 ± 0.31 | 708.285 ± 0.31 | 703.959 ± 0.3 | 699.61 ± 0.3 | 695.241 ± 0.3
x1 = 0.5996 | 732.829 ± 0.35 | 728.568 ± 0.34 | 724.292 ± 0.34 | 720.004 ± 0.34 | 715.698 ± 0.34 | 711.371 ± 0.34 | 707.026 ± 0.34 | 702.664 ± 0.34
x1 = 0.6802 | 739.756 ± 0.39 | 735.495 ± 0.39 | 731.219 ± 0.38 | 726.929 ± 0.38 | 722.623 ± 0.38 | 718.301 ± 0.38 | 713.958 ± 0.38 | 709.598 ± 0.38
x1 = 0.7495 | 745.832 ± 0.42 | 741.569 ± 0.42 | 737.294 ± 0.42 | 733.009 ± 0.42 | 728.705 ± 0.42 | 724.386 ± 0.42 | 720.046 ± 0.41 | 715.689 ± 0.41
x1 = 0.7984 | 750.175 ± 0.45 | 745.914 ± 0.45 | 741.641 ± 0.45 | 737.357 ± 0.45 | 733.056 ± 0.45 | 728.74 ± 0.45 | 724.406 ± 0.44 | 720.058 ± 0.44
x1 = 0.8484 | 754.693 ± 0.49 | 750.434 ± 0.48 | 746.164 ± 0.48 | 741.883 ± 0.48 | 737.584 ± 0.48 | 733.272 ± 0.47 | 728.943 ± 0.47 | 724.594 ± 0.47
x1 = 0.8999 | 759.4 ± 0.52 | 755.143 ± 0.52 | 750.877 ± 0.52 | 746.597 ± 0.51 | 742.304 ± 0.51 | 737.996 ± 0.51 | 733.672 ± 0.51 | 729.332 ± 0.5
x1 = 0.9467 | 763.694 ± 0.56 | 759.441 ± 0.55 | 755.177 ± 0.55 | 750.901 ± 0.55 | 746.613 ± 0.54 | 742.31 ± 0.54 | 737.99 ± 0.54 | 733.656 ± 0.54
x1 = 1 | 768.637 ± 0.6 | 764.385 ± 0.59 | 760.128 ± 0.59 | 755.856 ± 0.59 | 751.573 ± 0.58 | 747.276 ± 0.58 | 742.962 ± 0.58 | 738.636 ± 0.57

CCCCCCC [heptane] + CCCCCCN
x2 = 0
Conditions | mass density [kg/m3]
288.15 K | 687.954 ± 0.18
293.15 K | 683.733 ± 0.18
298.15 K | 679.494 ± 0.18
303.15 K | 675.229 ± 0.18
308.15 K | 670.941 ± 0.18
313.15 K | 666.621 ± 0.18
318.15 K | 662.273 ± 0.18
323.15 K | 657.896 ± 0.19
